These results are taken from patent US20190194179A1, “ANTIBIOTIC COMPOUNDS” (DISCUVA LTD., priority 2016, published 2019).

Structures can show the parent of a compound that is named as a salt. A value given as a limit tells only on which side of the number the result lay.

The subject of this assay is Neisseria gonorrhoeae. Nature of the assay: EC50 determination: plate-based broth growth assay (absorbance at 600 nm) of Neisseria gonorrhoeae. The class given is cell-based. As to conditions: absorbance 600 nm after 20 hours at 37° C./5% CO2, read-out: IC50 (Inhibitory concentration) against Neisseria gonorrhoeae. The protocol:
Actively growing Neisseria gonorrhoeae on GC agar (based on; Spence et. al. (2008): Curr. Protoc. Microbiol. 8:4A.1.1-4A.1.26) plates are harvested and transferred to GC broth (based on; Spence et al (2008): Curr. Protoc. Microbiol. 8:4A.1.1-4A.1.26) to generate a liquid stock. This culture is allowed to establish and grow to mid-log phase (at 37° C./5% CO2), finally this culture is diluted (˜10^5 cells/ml) to generate a seed inoculum to establish plate-based broth assays. EC50 values were determined by assaying growth (absorbance read at 600 nm, after 20 hours at 37° C./5% CO2) of Neisseria gonorrhoeae across a 10-point dilution series of the test compound. The EC50 value is determined from transformed data to identify the concentration of compound giving a 50% response relative to control samples (no compound).

Regarding `Cc1nnc(Nc2nc3c(F)cccc3o2)o1` [Example 62, 4-Fluoro-N-(5-methyl-1,3,4-oxadiazol-2-yl)benzo[d]oxazol-2-amine], the IC50 is at most 1 µM.

`Fc1ccc2nc(Nc3nnco3)oc2c1` [Example 63, 6-Fluoro-N-(1,3,4-oxadiazol-2-yl)benzo[d]oxazol-2-amine]: the IC50 is at most 1 µM.

For the molecule `Cc1nnc(Nc2nc3cncc(Cl)c3o2)o1` [Example 64, 7-Chloro-N-(5-methyl-1,3,4-oxadiazol-2-yl)oxazolo[4,5-c]pyridin-2-amine], the IC50 is at most 10 µM.

Consider `CCOC(=O)c1nnc(Nc2nc3cc(C(F)(F)F)c(Cl)cc3o2)o1` [Example 65, Ethyl 5-((6-chloro-5-(trifluoromethyl)benzo[d]oxazol-2-yl)amino)-1,3,4-oxadiazole-2-carboxylate], for which the IC50 is at most 0.1 µM.

In the case of `Fc1ccc2oc(Nc3nnco3)nc2c1` [Example 66, 5-Fluoro-N-(1,3,4-oxadiazol-2-yl)benzo[d]oxazol-2-amine], the IC50 was at most 1 µM.

As to `FC(F)(F)c1ccc2[nH]c(Nc3nnco3)nc2c1` [Example 68, N-(5-(Trifluoromethyl)-1H-benzo[d]imidazol-2-yl)-1,3,4-oxadiazol-2-amine], the IC50 is at most 1 µM.

As for `Cn1c(Nc2nnco2)nc2cc(C(F)(F)F)ccc21` [Example 69, N-(1-methyl-5-(trifluoromethyl)-1H-benzo[d]imidazol-2-yl)-1,3,4-oxadiazol-2-amine], the IC50 was at most 1 µM.

As to `FC(F)(F)c1ccc2oc(Nc3nnc(CN4CCOCC4)o3)nc2c1` [Example 70, N-(5-(morpholinomethyl)-1,3,4-oxadiazol-2-yl)-5-(trifluoromethyl)benzo[d]oxazol-2-amine], the IC50 was at most 1 µM.

As for `FC(F)(F)c1ccc2oc(Nc3nnc(CN4CCCC4)o3)nc2c1` [Example 71, N-(5-(Pyrrolidin-1-ylmethyl)-1,3,4-oxadiazol-2-yl)-5-(trifluoromethyl)benzo[d]oxazol-2-amine], the IC50 was at most 1 µM.

Consider `FC(F)(F)c1ccc2oc(Nc3nnc(CN4CCCCC4)o3)nc2c1` [Example 72, N-(5-(Piperidin-1-ylmethyl)-1,3,4-oxadiazol-2-yl)-5-(trifluoromethyl)benzo[d]oxazol-2-amine], for which the IC50 was at most 1 µM.

As to `CC1CCCN1Cc1nnc(Nc2nc3cc(C(F)(F)F)ccc3o2)o1` (stereo not shown) [Example 73, N-(5-((2-Methylpyrrolidin-1-yl)methyl)-1,3,4-oxadiazol-2-yl)-5-(trifluoromethyl)benzo[d]oxazol-2-amine], the IC50 was at most 1 µM.

With `FC1(F)CCN(Cc2nnc(Nc3nc4cc(C(F)(F)F)ccc4o3)o2)C1` [Example 74, N-(5-((3,3-diFluoropyrrolidin-1-yl)methyl)-1,3,4-oxadiazol-2-yl)-5-(trifluoromethyl)benzo[d]oxazol-2-amine], the IC50 was at most 1 µM.

In the case of `COC1CCN(Cc2nnc(Nc3nc4cc(C(F)(F)F)ccc4o3)o2)C1` (stereo not shown) [Example 75, N-(5-((3-Methoxypyrrolidin-1-yl)methyl)-1,3,4-oxadiazol-2-yl)-5-(trifluoromethyl)benzo[d]oxazol-2-amine], the IC50 is at most 1 µM.

For the molecule `N#CC1CCN(Cc2nnc(Nc3nc4cc(C(F)(F)F)ccc4o3)o2)C1` (stereo not shown) [Example 76, 1-((5-((5-(triFluoromethyl)benzo[d]oxazol-2-yl)amino)-1,3,4-oxadiazol-2-yl)methyl)pyrrolidine-3-carbonitrile], the IC50 was at most 10 µM.

As for `Clc1ccc2nc(Nc3nnc(CN4CCCC4)o3)oc2c1` [Example 77, 6-Chloro-N-(5-(pyrrolidin-1-ylmethyl)-1,3,4-oxadiazol-2-yl)benzo[d]oxazol-2-amine], the IC50 is at most 0.1 µM.

With `CC1CCN(Cc2nnc(Nc3nc4cc(C(F)(F)F)ccc4o3)o2)C1` (stereo not shown) [Example 78, N-(5-((3-methylpyrrolidin-1-yl)methyl)-1,3,4-oxadiazol-2-yl)-5-(trifluoromethyl)benzo[d]oxazol-2-amine], the IC50 was at most 1 µM.

For the molecule `FC1CCN(Cc2nnc(Nc3nc4cc(C(F)(F)F)ccc4o3)o2)C1` (stereo not shown) [Example 79, N-(5-((3-Fluoropyrrolidin-1-yl)methyl)-1,3,4-oxadiazol-2-yl)-5-(trifluoromethyl)benzo[d]oxazol-2-amine], the IC50 is at most 1 µM.

Take `CN(C)Cc1nnc(Nc2nc3ccc(Cl)cc3o2)o1` [Example 81, 6-Chloro-N-(5-((dimethylamino)methyl)-1,3,4-oxadiazol-2-yl)benzo[d]oxazol-2-amine]: the IC50 was at most 1 µM.

Take `CN(C)Cc1nnc(Nc2nc3cc(C(F)(F)F)ccc3o2)o1` [Example 82, N-(5-((Dimethylamino)methyl)-1,3,4-oxadiazol-2-yl)-5-(trifluoromethyl)benzo[d]oxazol-2-amine]: the IC50 is at most 1 µM.

Regarding `Cc1nnc(Nc2nc3ccc(C(F)(F)F)cc3[nH]2)o1` [Example 83, 5-Methyl-N-(6-(trifluoromethyl)-1H-benzo[d]imidazol-2-yl)-1,3,4-oxadiazol-2-amine], the IC50 was at most 1 µM.

For the molecule `COC(=O)c1ccc2[nH]c(Nc3nnc(C)o3)nc2c1` [Example 84, Methyl 2-((5-methyl-1,3,4-oxadiazol-2-yl)amino)-1H-benzo[d]imidazole-5-carboxylate], the IC50 was at most 10 µM.

As for `Cc1nnc(Nc2nc3cc(Cl)ccc3[nH]2)o1` [Example 85, N-(5-Chloro-1H-benzo[d]imidazol-2-yl)-5-methyl-1,3,4-oxadiazol-2-amine], the IC50 was at most 1 µM.

In the case of `Cc1nnc(Nc2nc3cc(C(F)(F)F)ccc3[nH]2)s1` [Example 86, 5-Methyl-N-(5-(trifluoromethyl)-1H-benzo[d]imidazol-2-yl)-1,3,4-thiadiazol-2-amine], the IC50 is at most 1 µM.

Turning to `Cc1nnc(Nc2nc3c(F)cccc3[nH]2)o1` [Example 87, N-(4-Fluoro-1H-benzo[d]imidazol-2-yl)-5-methyl-1,3,4-oxadiazol-2-amine], the IC50 is at most 1 µM.

Turning to `Cc1nnc(Nc2nc3cc(C(F)(F)F)ccc3n2C)o1` [Example 88, 5-Methyl-N-(1-methyl-5-(trifluoromethyl)-1H-benzo[d]imidazol-2-yl)-1,3,4-oxadiazol-2-amine], the IC50 is at most 1 µM.

Take `Cc1nnc(Nc2nc3ccc(C(F)(F)F)cc3n2C)o1` [Example 89, 5-Methyl-N-(1-methyl-6-(trifluoromethyl)-1H-benzo[d]imidazol-2-yl)-1,3,4-oxadiazol-2-amine]: the IC50 was at most 1 µM.

`Cc1nnc(Nc2nc3c(C)cccc3n2C)o1` [Example 90, N-(1,4-Dimethyl-1H-benzo[d]imidazol-2-yl)-5-methyl-1,3,4-oxadiazol-2-amine]: the IC50 was at most 10 µM.

Regarding `Clc1ccc2nc(Nc3nnco3)[nH]c2c1` [Example 91, N-(6-Chloro-1H-benzo[d]imidazol-2-yl)-1,3,4-oxadiazol-2-amine], the IC50 was at most 100 µM.

As for `Cn1c(Nc2nnco2)nc2ccc(Cl)cc21` [Example 92, N-(6-Chloro-1-methyl-1H-benzo[d]imidazol-2-yl)-1,3,4-oxadiazol-2-amine], the IC50 was at most 100 µM.

With `CNCc1nnc(Nc2nc3cc(C(F)(F)F)ccc3o2)o1` [Example 93, N-(5-((Methylamino)methyl)-1,3,4-oxadiazol-2-yl)-5-(trifluoromethyl)benzo[d]oxazol-2-amine], the IC50 was at most 10 µM.

On to `CC(=O)N(C)Cc1nnc(Nc2nc3cc(C(F)(F)F)ccc3o2)o1` [Example 94, N-Methyl-N-((5-((5-(trifluoromethyl)benzo[d]oxazol-2-yl)amino)-1,3,4-oxadiazol-2-yl)methyl)acetamide], for which the IC50 is at most 10 µM.

As for `O=C(c1csc(Nc2nc3cc(C(F)(F)F)ccc3o2)n1)N1CCNCC1` [Example 95, Piperazin-1-yl(2-((5-(trifluoromethyl)benzo[d]oxazol-2-yl)amino)thiazol-4-yl)methanone hydrochloride], the IC50 was at most 1 µM.

In the case of `O=C(O)c1csc(Nc2nc3cc(Cl)ccc3o2)n1` [Example 96, 2-((5-Chlorobenzo[d]oxazol-2-yl)amino)thiazole-4-carboxylic acid], the IC50 is at most 10 µM.

Take `CN(C)CCNC(=O)c1csc(Nc2nc3cc(Cl)ccc3o2)n1` [Example 97, 2-((5-Chlorobenzo[d]oxazol-2-yl)amino)-N-(2-(dimethylamino)ethyl)thiazole-4-carboxamide]: the IC50 was at most 1 µM.

On to `O=C(Nc1ccnc(F)c1)c1csc(Nc2nc3cc(C(F)(F)F)ccc3o2)n1` [Example 98, N-(2-fluoropyridin-4-yl)-2-((5-(trifluoromethyl)benzo[d]oxazol-2-yl)amino)thiazole-4-carboxamide], for which the IC50 is at most 0.1 µM.

In the case of `NC(=O)c1csc(Nc2nc3cc(Cl)ccc3o2)n1` [Example 99, 2-((5-Chlorobenzo[d]oxazol-2-yl)amino)thiazole-4-carboxamide], the IC50 was at most 1 µM.

For `FC(F)(F)c1ccc2oc(Nc3nc(Cl)cs3)nc2c1` [Example 100, N-(4-Chlorothiazol-2-yl)-5-(trifluoromethyl)benzo[d]oxazol-2-amine], the IC50 is at most 1 µM.

In the case of `NC(=O)c1csc(Nc2nc3ccc(C(F)(F)F)cc3o2)n1` [Example 101, 2-((6-(trifluoromethyl)benzo[d]oxazol-2-yl)amino)thiazole-4-carboxamide], the IC50 was at most 1 µM.

Regarding `NC(=O)c1nnc(Nc2nc3ccc(C(F)(F)F)cc3o2)o1` [Example 102, 5-((6-(Trifluoromethyl)benzo[d]oxazol-2-yl)amino)-1,3,4-oxadiazole-2-carboxamide], the IC50 is at most 100 µM.

Regarding `FC(F)(F)c1ccc2oc(Nc3nnc(C4CC4)o3)nc2c1` [Example 103, N-(5-Cyclopropyl-1,3,4-oxadiazol-2-yl)-5-(trifluoromethyl)benzo[d]oxazol-2-amine], the IC50 was at most 0.1 µM.
